Calls of active or inactive are those of the source. The calls are words filed in the database; no cut-off is given here.
What was measured:
[1] = tested on: HCT-116; experiment: Antiproliferative activity against human HCT-116 cells assessed as inhibition of cell growth measured after 48 hrs by SRB method; type: functional, cell-based; conditions: HCT-116, 48 h
[2] = tested on: MDA-MB-231; experiment: Induction of ROS generation in human MDA-MB-231 cells measured after 48 hrs by DCFDA staining based fluorescent microscopic analysis; type: functional, cell-based; conditions: dose 4-16 µM
[3] = tested on: MDA-MB-231; experiment: Induction of apoptosis in human MDA-MB-231 cells assessed as reduction in Bcl-2 expression by Western blot analysis; type: functional, cell-based
[4] = tested on: MDA-MB-231; experiment: Inhibition of colony formation in human MDA-MB-231 cells assessed as reduction in colony size at 4 to 16 uM incubated for 24 hrs; type: functional, cell-based; conditions: dose 4-16 µM
[5] = tested on: MCF7; experiment: Antiproliferative activity against human MCF7 cells assessed as inhibition of cell growth measured after 48 hrs by SRB method; type: functional, cell-based; conditions: MCF7, 48 h
[6] = tested on: MDA-MB-231; experiment: Induction of apoptosis in human MDA-MB-231 cells assessed as chromatin condensation at 4 to 16 uM measured after 48 hrs by DAPI staining based fluorescent microscopic analysis; type: functional, cell-based; conditions: dose 4-16 µM
[7] = tested on: MDA-MB-231; experiment: Induction of apoptosis in human MDA-MB-231 cells assessed as upregulation of bax expression by Western blot analysis; type: functional, cell-based
[8] = tested on: MDA-MB-231; experiment: Induction of apoptosis in human MDA-MB-231 cells assessed as increase in caspase-3 expression by Western blot analysis; type: functional, cell-based
[9] = Selectivity index, ratio of IC50 for HEK293 cells to IC50 for human MDA-MB-231 cells; type: toxicity; conditions: HEK293 cells versus MDA-MB-231 cells, read-out: Ratio IC50
[10] = tested on: MDA-MB-231; experiment: Antiproliferative activity against human MDA-MB-231 cells assessed as inhibition of cell growth at 20 uM by SRB method relative to control; type: functional; parameters: scale not given: the % may be the effect or the level left
[11] = tested on: MDA-MB-231; experiment: Antiproliferative activity against human MDA-MB-231 cells assessed as inhibition of cell growth measured after 48 hrs by SRB method; type: functional, cell-based; conditions: MDA-MB-231, 48 h
[12] = tested on: MDA-MB-231; experiment: Induction of apoptosis in human MDA-MB-231 cells assessed as cell blebbing at 4 to 16 uM measured after 48 hrs by DAPI staining based fluorescent microscopic analysis; type: functional; conditions: dose 4-16 µM
[13] = tested on: MCF7; experiment: Antiproliferative activity against human MCF7 cells assessed as inhibition of cell growth at 20 uM by SRB method relative to control; type: functional; parameters: scale not given: the % may be the effect or the level left
[14] = Antiproliferative activity against HEK293 cells assessed as inhibition of cell growth measured after 48 hrs by SRB method; type: toxicity, cell-based; conditions: human
[15] = tested on: MDA-MB-468; experiment: Antiproliferative activity against human MDA-MB-468 cells assessed as inhibition of cell growth at 20 uM by SRB method relative to control; type: functional; parameters: scale not given: the % may be the effect or the level left
[16] = tested on: MDA-MB-231; experiment: Inhibition of colony formation in human MDA-MB-231 cells assessed as reduction in number of colonies at 4 to 16 uM incubated for 24 hrs; type: functional, cell-based; conditions: dose 4-16 µM
[17] = tested on: A549; experiment: Antiproliferative activity against human A549 cells assessed as inhibition of cell growth at 20 uM by SRB method relative to control; type: functional; parameters: scale not given: the % may be the effect or the level left
[18] = tested on: A549; experiment: Antiproliferative activity against human A549 cells assessed as inhibition of cell growth measured after 48 hrs by SRB method; type: functional, cell-based; conditions: A549, 48 h
[19] = Selectivity index, ratio of IC50 for HEK293 cells to IC50 for human MDA-MB-468 cells; type: toxicity; conditions: HEK293 cells versus MDA-MB-468 cells, read-out: Ratio IC50
[20] = tested on: Cell membrane; experiment: Induction of mitochondrial membrane potential loss in human MDA-MB-231 cells assessed as reduction in fluorescence measured after 48 hrs by rhodamine-123 dye based fluorescence assay; conditions: dose 4-16 µM
[21] = tested on: MDA-MB-231; experiment: Induction of apoptosis in human MDA-MB-231 cells assessed as effect on bax/bcl-2 ratio by Western blot analysis; type: functional, cell-based
[22] = Selectivity index, ratio of IC50 for HEK293 cells to IC50 for human MCF7 cells; type: toxicity; conditions: HEK293 cells versus MCF7 cells, read-out: Ratio IC50
[23] = tested on: MDA-MB-468; experiment: Antiproliferative activity against human MDA-MB-468 cells assessed as inhibition of cell growth measured after 48 hrs by SRB method; type: functional, cell-based; conditions: MDA-MB-468, 48 h
[24] = tested on: HCT-116; experiment: Antiproliferative activity against human HCT-116 cells assessed as inhibition of cell growth at 20 uM by SRB method relative to control; type: functional; parameters: scale not given: the % may be the effect or the level left
[25] = tested on: MDA-MB-231; experiment: Inhibition of colony formation in human MDA-MB-231 cells incubated for 24 hrs; type: functional, cell-based; conditions: dose 4-16 µM
[26] = tested on: MDA-MB-231; experiment: Antiproliferative activity against human MDA-MB-231 cells; type: functional, cell-based

COc1ccc(/C=C/C(=O)c2ccc(OCC(=O)NC3CCCCC3)cc2)cc1
IC50 [1]: 18.9 µM

COc1ccc(/C=C/C(=O)c2ccc(OCC(=O)N3CCCC3)cc2)cc1
Activity [2]: Dose-Dependent Effect | Activity [3]: Active | inhibition [4]: Active | IC50 [5]: 16.2 µM | Activity [6]: Active | IC50 [1]: 18.3 µM | Activity [7]: Active | Activity [8]: Active | selectivity ratio [9]: 4.14 | Activity [10]: ~60% | IC50 [11]: 9.42 µM | Activity [12]: Active | Activity [13]: ~60% | IC50 at 48 h [14]: 39.1 µM | Activity [15]: ~60% | inhibition [16]: Active | Activity [17]: ~60% | IC50 [18]: 17.1 µM | selectivity ratio [19]: 3.85 | Activity [20]: Dose-Dependent Effect | Activity [21]: Active | selectivity ratio [22]: 2.41 | IC50 [23]: 10.1 µM | Activity [24]: ~60% | inhibition [25]: Dose-Dependent Effect

COc1ccc(/C=C/C(=O)c2ccc(OCC(=O)N3CCCCC3)cc2)cc1
IC50 [5]: 22.7 µM | IC50 [1]: 17.4 µM | IC50 at 48 h [14]: 10.8 µM

COc1ccc(/C=C/C(=O)c2ccc(OCC(=O)NCCc3ccccc3)cc2)cc1
IC50 at 48 h [14]: 23.4 µM

COc1cccc(C(=O)/C=C/c2ccc(N(CCCl)CCCl)cc2)c1
IC50 [26]: 3940 µM

COc1ccc(/C=C/C(=O)c2ccc(OCC(=O)Nc3ncccc3Cl)cc2)cc1
IC50 [11]: 24.1 µM | IC50 [18]: 35.4 µM | IC50 [23]: 25.2 µM

COc1ccc(/C=C/C(=O)c2ccc(OCC(=O)N3CCSCC3)cc2)cc1
IC50 [1]: 15.2 µM | IC50 [18]: 45.4 µM

COc1ccc(/C=C/C(=O)c2ccc(OCC(=O)NCc3cc(OC)c(OC)c(OC)c3)cc2)cc1
IC50 [1]: 10.5 µM | IC50 at 48 h [14]: 15.2 µM
